Here are results for 8 compounds from patent publication US20230114728A1 (Venatorx Pharmaceuticals, Inc., priority 2019, published 2023).

In brackets after ≈: the same amount, converted by molar mass.

Test in all cases: Broth microdilution MIC in iron-depleted CAMHB (IDM)
Holding throughout (format): cell-based
(In general: Dilution methods test growth across graded concentrations, often in twofold steps.)

In one test the test system is A. baumannii ATCC 17978. The following applies: Acinetobacter baumannii, ATCC17978, read-out: Minimum Inhibitory Concentration, ATCC 17978. A digest of the protocol: (§1)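 IDM = CAMHB stripped with Chelex 100 resin 2 h, supplemented CaCl2 82.5 mg/L, MgCl2 94.1 mg/L, ZnSO4 10 μM, pH 7.3. 2-fold compound dilutions; 2-8×10^5 CFU/mL; 37° C; Acinetobacter 20-24 h, Pseudomonas 16-20 h. Visual MIC.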

The next test has as its system A. baumannii ATCC 19606. As to conditions: Acinetobacter baumannii, ATCC19606, read-out: Minimum Inhibitory Concentration, ATCC 19606. A digest of the protocol: as §1
In test [1] the test system is A. baumannii CDC-0033 producing NDM-1, and OXA-94. The following applies: Acinetobacter baumannii, read-out: Minimum Inhibitory Concentration, CDC-0033. In a few lines:
as §1

The test system of test [2] is A. baumannii CDC-0036 OXA-65, and OXA-24. As to conditions: Acinetobacter baumannii, read-out: Minimum Inhibitory Concentration, CDC-0036. In a few lines:
as §1

In test [3] the test system is A. baumannii CDC-0083 producing NDM-1, PER-7, OXA-23, and OXA-69. As to conditions: Acinetobacter baumannii, read-out: Minimum Inhibitory Concentration, CDC-0083. A digest of the protocol:
as §1

The next test deals with P. aeruginosa ATCC 27853. The following applies: Pseudomonas aeruginosa, ATCC27853, read-out: Minimum Inhibitory Concentration, P. aeruginosa ATCC 27853. A digest of the protocol:
as §1

Test [4] has as its system P. aeruginosa CDC-0090 producing KPC-5, OXA-50, and PAO. The following applies: Pseudomonas aeruginosa, read-out: Minimum Inhibitory Concentration, P. aeruginosa CDC-0090. A digest of the protocol: as §1
For test [5], the system named is P. aeruginosa CDC-0095 producing OXA-50, and PAO. The following applies: Pseudomonas aeruginosa, read-out: Minimum Inhibitory Concentration, P. aeruginosa CDC-0095. A digest of the protocol: as §1

In the case of `CCN1CCN(C(=O)N[C@H](C(=O)N[C@H]2Cc3ccc(F)c(C(=O)O)c3OB2O)c2c(F)cc(O)c(O)c2Cl)C(=O)C1=O` (single isomer, unassigned) [Example 125], the MIC (with A. baumannii ATCC 17978; in the test with A. baumannii ATCC 19606; in test [1]; in test [2]; in test [3]; in the test with P. aeruginosa ATCC 27853) was above 128 µg/mL in each case. Besides, the MIC in test [4] and in test [5] was above 128 µg/mL each time.
On to `NC1(CN2CCN(C(=O)N[C@@H](C(=O)N[C@H]3Cc4ccc(F)c(C(=O)O)c4OB3O)c3cc(F)c(O)c(O)c3Cl)C(=O)C2=O)CC1` (single isomer, unassigned) [Example 133], for which the MIC was 0.25 µg/mL (≈ 0.384 µM) with A. baumannii ATCC 17978; 0.25 µg/mL (≈ 0.384 µM) in the test with A. baumannii ATCC 19606; 8 to 16 µg/mL (≈ 12.3 to 24.5 µM) in test [1]; 2 to 4 µg/mL (≈ 3.07 to 6.14 µM) in test [2]; above 128 µg/mL in test [3]; 0.5 to 1 µg/mL (≈ 0.767 to 1.53 µM) with P. aeruginosa ATCC 27853. Further, the figures for the MIC in test [4] and in test [5] were 0.5 to 1 µg/mL (≈ 0.767 to 1.53 µM) and 2 to 4 µg/mL (≈ 3.07 to 6.14 µM), respectively.
For `NC1(CN2CCN(C(=O)N[C@@H](C(=O)N[C@H]3Cc4ccc(F)c(C(=O)O)c4OB3O)c3c(F)cc(O)c(O)c3Cl)C(=O)C2=O)CC1` (single isomer, unassigned) [Example 134], the MIC in the test with A. baumannii ATCC 17978 is 0.5 to 1 µg/mL (≈ 0.767 to 1.53 µM); with A. baumannii ATCC 19606, 0.5 to 1 µg/mL (≈ 0.767 to 1.53 µM); in test [1] it was 32 to 64 µg/mL (≈ 49.1 to 98.2 µM); in test [2], 8 to 16 µg/mL (≈ 12.3 to 24.5 µM); in test [3], above 128 µg/mL; in the test on P. aeruginosa ATCC 27853, 2 to 4 µg/mL (≈ 3.07 to 6.14 µM). The results for the MIC in test [4] and in test [5] were 2 to 4 µg/mL (≈ 3.07 to 6.14 µM) and 32 to 64 µg/mL (≈ 49.1 to 98.2 µM), respectively.
For `NCCN1CCN(C(=O)N[C@@H](C(=O)N[C@H]2Cc3ccc(F)c(C(=O)O)c3OB2O)c2cc(F)c(O)c(O)c2Cl)C(=O)C1=O` (single isomer, unassigned) [Example 179], the MIC with A. baumannii ATCC 17978 was 0.5 to 1 µg/mL (≈ 0.799 to 1.6 µM); in the test with A. baumannii ATCC 19606, 0.5 to 1 µg/mL (≈ 0.799 to 1.6 µM); in test [1] it was 8 to 16 µg/mL (≈ 12.8 to 25.6 µM); in test [2], 2 to 4 µg/mL (≈ 3.2 to 6.39 µM); in test [3] it was above 128 µg/mL; in the test on P. aeruginosa ATCC 27853, 0.5 to 1 µg/mL (≈ 0.799 to 1.6 µM). The MIC in test [4] and in test [5] was 2 to 4 µg/mL (≈ 3.2 to 6.39 µM) throughout.
`NCCCN1CCN(C(=O)N[C@@H](C(=O)N[C@H]2Cc3ccc(F)c(C(=O)O)c3OB2O)c2cc(F)c(O)c(O)c2Cl)C(=O)C1=O` (single isomer, unassigned) [Example 180]: the MIC with A. baumannii ATCC 17978 was 0.5 to 1 µg/mL (≈ 0.782 to 1.56 µM); with A. baumannii ATCC 19606, 0.5 to 1 µg/mL (≈ 0.782 to 1.56 µM); in test [1] it was 8 to 16 µg/mL (≈ 12.5 to 25 µM); in test [2], 8 to 16 µg/mL (≈ 12.5 to 25 µM); in test [3], above 128 µg/mL; with P. aeruginosa ATCC 27853, 0.5 to 1 µg/mL (≈ 0.782 to 1.56 µM). The MIC in test [4] and in test [5] was 2 to 4 µg/mL (≈ 3.13 to 6.25 µM) throughout.
As to `C[C@@H](O)[C@@H](NC(=O)N1CCN(CCNC(=O)c2c(F)cc(O)c(O)c2Cl)C(=O)C1=O)C(=O)N[C@H]1Cc2ccc(F)c(C(=O)O)c2OB1O` [Example 102, (R)-3-((2R,3R)-2-(4-(2-(2-chloro-6-fluoro-3,4-dihydroxybenzamido)ethyl)-2,3-dioxopiperazine-1-carboxamido)-3-hydroxybutanamido)-7-fluoro-2-hydroxy-3,4-dihydro-2H-benzo[e][1,2]oxaborinine-8-carboxylic acid], the MIC fell in the range of 2 to 4 µg/mL (≈ 2.87 to 5.73 µM) with A. baumannii ATCC 17978; 2 to 4 µg/mL (≈ 2.87 to 5.73 µM) with A. baumannii ATCC 19606; 32 to 64 µg/mL (≈ 45.9 to 91.7 µM) in test [1]; 32 to 64 µg/mL (≈ 45.9 to 91.7 µM) in test [2]; 32 to 64 µg/mL (≈ 45.9 to 91.7 µM) in test [3]; 2 to 4 µg/mL (≈ 2.87 to 5.73 µM) with P. aeruginosa ATCC 27853. Further, the MIC in test [4] and in test [5] was 2 to 4 µg/mL (≈ 2.87 to 5.73 µM) each time.
For the compound `NS(=O)(=O)Nc1cccc(C(NC(=O)N2CCN(Cc3c(F)cc(O)c(O)c3Cl)C(=O)C2=O)C(=O)N[C@H]2Cc3cccc(C(=O)O)c3OB2O)c1` (stereo partly drawn) [Example 131, (3R)-3-(2-(4-(2-chloro-6-fluoro-3,4-dihydroxybenzyl)-2,3-dioxopiperazine-1-carboxamido)-2-(3-(sulfamoylamino)phenyl)acetamido)-2-hydroxy-3,4-dihydro-2H-benzo[e][1,2]oxaborinine-8-carboxylic acid], the MIC was 0.5 to 1 µg/mL (≈ 0.668 to 1.34 µM) with A. baumannii ATCC 17978; above 128 µg/mL with A. baumannii ATCC 19606; above 128 µg/mL in test [1]; above 128 µg/mL in test [2]; above 128 µg/mL in test [3]; 8 to 16 µg/mL (≈ 10.7 to 21.4 µM) in the test on P. aeruginosa ATCC 27853. Moreover, the MIC in test [4] fell in the range of 2 to 4 µg/mL (≈ 2.67 to 5.34 µM); in test [5] it was 8 to 16 µg/mL (≈ 10.7 to 21.4 µM).
With `NS(=O)(=O)c1cc(O)cc(C(NC(=O)N2CCN(Cc3c(F)cc(O)c(O)c3Cl)C(=O)C2=O)C(=O)N[C@H]2Cc3cccc(C(=O)O)c3OB2O)c1` (stereo partly drawn) [Example 132, (3R)-3-(2-(4-(2-chloro-6-fluoro-3,4-dihydroxybenzyl)-2,3-dioxopiperazine-1-carboxamido)-2-(3-hydroxy-5-sulfamoylphenyl)acetamido)-2-hydroxy-3,4-dihydro-2H-benzo[e][1,2]oxaborinine-8-carboxylic acid], the MIC is above 128 µg/mL in the test with A. baumannii ATCC 17978; 8 to 16 µg/mL (≈ 10.7 to 21.3 µM) in the test with A. baumannii ATCC 19606; above 128 µg/mL in test [1]; above 128 µg/mL in test [2]; above 128 µg/mL in test [3]; 8 to 16 µg/mL (≈ 10.7 to 21.3 µM) in the test on P. aeruginosa ATCC 27853. Further, the MIC in test [4] was 2 to 4 µg/mL (≈ 2.67 to 5.33 µM); in test [5] it was above 128 µg/mL.
